The values that follow come from US20200289521A1, “USE OF VITAMIN K IN COMBINATION WITH ANTICOAGULANTS” (KAYDENCE PHARMA AS, priority 2019, published 2020).

Assay [1] deals with VSMCs. The experiment in a line: Warfarin-induced oxidative stress in VSMCs, effect of vitamin K2 (DCFDA). The class given is cell-based. As to the method:
It is known that the level of reactive oxygen species in cells can be measured by measuring the conversion of 2′,7′-dichlorofluorescein diacetate (DCFDA) to the fluorescent dye 2′,7′-dichlorofluorescein (DCF). The fluorescence generated by cells subjected to DCFDA is directly proportional to the amount of oxidized DCFDA to DCF.
This study was performed to determine if vitamin K2 (MK-7) reduces warfarin-induced oxidative stress. To perform the study, VSMCs (10,000 cells/well) were plated in a 96-well plate and left to adhere overnight. Next, cells were incubated for 24 hours with 100 μM warfarin. The next day, 20 μM DCFDA was added to the cells for 1 hour. The cells were then incubated for 5 hours with normal medium (baseline), vitamin K2 (MK-7), or warfarin. Fluorescence was measured and fluorescence intensity was normalized for cell count.

Assay [2] deals with VSMCs. Nature of the assay: ATP over time in VSMCs with vitamin K2 (luminescence). In kind it is cell-based. The note with it: 10 μM, indicated time points. On the procedure:
To perform this study, first, VSCMs (5000 cells/well) were plated in 96-well plates and left to adhere overnight. Next, cells were incubated for indicated time points with vitamin K2 (MK-7) (10 μM). Hoechst was added to correct for cell number (1 μg/mL). Next, ATP was measured using mammalian lysis buffer for 5 minutes, after which 50 μL ATP substrate solution was added to the wells and incubated for 10 minutes in a dark environment. Finally, medium was transferred to a white plate to measure luminescence.

Assay [3] concerns whole-blood thrombogenicity. Nature of the assay: T-TAS Total Thrombus-formation Analysis of whole blood from treated Sprague-Dawley rats. In kind it is in vivo. As to the method: This experiment was conducted in order to evaluate the effects of vitamin K2 (MK-7) on the anticoagulant activity of the new oral anticoagulants (NOAC) rivaroxaban and dabigatran using the T-TAS Total Thrombus-formation Analysis System. The T-TAS Total Thrombus-formation Analysis System is a microchip-based flow chamber system capable of evaluating whole-blood thrombogenicity. It is a useful tool in monitoring the efficacy of anticoagulants on thrombus formation and predicting the risk of bleeding complications. To perform the study, 45 wild-type male Sprague-Dawley and 45 transgenic male Ren-2 rats [TGR(mREN-2)27] at the age of 10-11 weeks at the beginning of the treatment period were purchased from animal facility IKEM-CEM Institute of Clinical and Experimental Medicine (Prague, Czech Republic). All animals in the experiment were housed in individually ventilated cages (2-3 rats per cage) and kept in the animal rooms of JCET at a relative humidity of 55±10%, a temperature of 22±2° C., and a light cycle of 7 AM to 7 PM. The rats had free access to food and water. After delivery, animals were randomly divided into 10 experimental groups (5 or 10 rats per group), as indicated below in Table 1. Four days before the start of the treatment, the first part of animals' body weight and food intake was measured in selected representative three cages (rats n=9) to calculate the appropriate amount of tested compounds required for addition to the diet to obtain the dosing indicated in Table 1. It was estimated that food intake was approximately 30 g of chow per rat per day. The animals were fed for two weeks with AIN-93G diet supplemented with rivaroxaban or dabigatran with/without Vitamin K2 (MK-7), as indicated in Table 1. The animals were then anesthetized in order to draw blood samples for further analysis. The body mass of the rats was measured at the beginning and at the end of treatment. At the beginning and at the end of treatment, the food intake per day was measured in representative group of animals to monitor the daily dosing of tested compounds (per kg of body mass). The thrombus formation in vitro was measured in whole blood using a microchip-based flow chamber system according to manufacturers' protocol (Total Thrombus-formation Analyser System, T-TAS; Fujimori Kogyo Co., Ltd., Tokyo, Japan). For the analysis, citrated whole blood (480 μl) was mixed with 20 μl of 300 mM CaCl2 solution containing 1.25 mg/ml CTI (Corn Trypsin Inhibitor). […] The obtained flow pressure pattern for each sample was used to analyze thrombus formation based on the following estimated parameters: […]

A short description of assay [4]: Thrombin Time (TT), Coag-Chrom 3003, treated Sprague-Dawley rats. The class given is in vivo. The conditions noted are these: added to dabigatran and to rivaroxaban. On the procedure: To perform the study, 45 wild-type male Sprague-Dawley and 45 transgenic male Ren-2 rats [TGR(mREN-2)27] at the age of 10-11 weeks at the beginning of the treatment period were purchased from animal facility IKEM-CEM Institute of Clinical and Experimental Medicine (Prague, Czech Republic). All animals in the experiment were housed in individually ventilated cages (2-3 rats per cage) and kept in the animal rooms of JCET at a relative humidity of 55±10%, a temperature of 22±2° C., and a light cycle of 7 AM to 7 PM. The rats had free access to food and water. After delivery, animals were randomly divided into 10 experimental groups (5 or 10 rats per group), as indicated below in Table 1.
Four days before the start of the treatment, the first part of animals' body weight and food intake was measured in selected representative three cages (rats n=9) to calculate the appropriate amount of tested compounds required for addition to the diet to obtain the dosing indicated in Table 1. It was estimated that food intake was approximately 30 g of chow per rat per day. […] The body mass of the rats was measured at the beginning and at the end of treatment.
Prothrombin Time (PT), activated Partial Thromboplastin Time (aPTT), Thrombin Time (TT) and fibrinogen levels (Clauss method) were determined according to the manufacturer's instructions using Coag-Chrom 3003 apparatus (Bio-ksel, Grudziadz, Poland). […]

As for `CC(C)=CCC/C(C)=C/CC/C(C)=C/CC/C(C)=C/CC/C(C)=C/CC/C(C)=C/CC/C(C)=C/CC1=C(C)C(=O)c2ccccc2C1=O` [vitamin K2 (MK-7)], in assay [1] (5 hours incubation, no warfarin), the normal oxidative stress entry was “reduced not only normal oxidative stress”. In addition, in assay [1] (24 hours 100 μM warfarin, then 5 hours incubation), the warfarin-induced oxidative stress result was “counteracted the warfarin-induced oxidative stress”. Moreover, in assay [2], the “ATP production over time” value is “stimulated ATP production”. Further, the “increase of occlusion Time (OT) by addition of vitamin K2 (MK-7)” value in assay [3] (added to dabigatran and to rivaroxaban) was 5-7%. In assay [3] (vitamin K2 (MK-7) added to dabigatran or rivaroxaban), the “formation of a clot (AUC)” value is on record as “did not prevent the formation of a clot”. Further, the “increase of thrombin time by addition of vitamin K2 (MK-7)” value in assay [4] is listed as 5-7%.
